Where two headings read alike, the source gives them in different places.
Experiments:
[1] = Octanol/water partition coefficient, shake-flask with UV–vis; format: physicochemical; details: 21 °C
Method: Partition coefficients (Pow), defined by the formula Pow = corg/caq, wherein corg and caq denote the molar concentrations of the specific compound in octanol and aqueous phases, respectively, were obtained using the shake-flask method with UV–vis measurements, following a previously described procedure (Table 3).[98] All the operations were carried out at 21 ± 1 °C. The wavelength corresponding to the maximum absorption of each compound within the range 350–430 nm was employed for quantifying using UV–vis techniques.

[2] = Stability in H2O/CH3OH solution (UV–vis); format: physicochemical; details: ca. 5:1 v/v
Method: (§1) […] The percentage of remaining complex in the solution was calculated by considering the change in absorbance at the characteristic wavelength. The identical procedure was employed to evaluate stability in MeOH and DMEM (about 1:5 v/v) solutions. DMEM stands for the cell culture medium (containing 1000 mg/L glucose and L-glutamine, excluding sodium bicarbonate and phenol red; reference D2902-Merck).

[3] = Cyclic voltammetry in CH2Cl2/[N^nBu4]PF6; format: physicochemical; details: CH2Cl2/[N^nBu4]PF6 0.2 M
Method: Cyclic voltammetry measurements were conducted by using a PalmSens4 instrument connected to a computer operating with the PSTrace5 electrochemical software. Prior to use, anhydrous CH2Cl2 (Merck) was stored under argon over 3 Å molecular sieves. Both [N^nBu4]PF6 (electrochemical grade) and FeCp2, obtained from Fluka, were utilized without requiring additional purification. Cyclic voltammetries were carried out under argon by utilizing a 0.2 M solution of [N^nBu4]PF6 in CH2Cl2 as the supporting electrolyte. The working electrode and the counter electrode were comprised of a platinum disk and a platinum gauze, respectively, both enclosed within a glass tube. A leakage-free miniature electrode of Ag/AgCl/KCl (from eDAQ) was employed as a reference. The three-electrode designed cell was subjected to predrying via vacuum heating and then filled with argon gas. The Schlenk-type design of the cell was effective in upholding both anhydrous and anaerobic conditions. Subsequently, a solution of supporting electrolyte, prepared under argon, was introduced into the cell, and the CV of the solvent was acquired. Afterward, the analyte was introduced, and voltammograms were recorded. Under the selected experimental conditions, the one-electron oxidation of ferrocene occurred at a standard potential of E° = +0.45 V relative to Ag/AgCl/KCl.

[4] = Stability in DMEM/CH3OH solution (UV–vis); format: physicochemical; details: ca. 5:1 v/v
Method: as §1

[5] = test system: A2780 human ovarian carcinoma cell line; experiment: MTT in vitro cytotoxicity, A2780; format: cell-based
Method: (§2) The cytotoxicity assessment was conducted on various human cancer cell lines, including A2780 ovarian carcinoma, A2780R cisplatin-resistant ovarian carcinoma, MCF-7 breast, HOS osteosarcoma, A549 epithelial lung, PANC-1 pancreatic, Caco-2 colorectal, PC-3 prostate adenocarcinoma, and HeLa cervical cell lines. Additionally, the assessment extended to a normal human fetal fibroblast cell line (MRC-5). Cells were obtained from ATCC collection and cultivated according to the producer’s instructions. Stock solutions of the compounds were prepared in DMF immediately before application, and diluted with H2O to achieve the final concentration of 0.1% v/v DMF.[99] The culture media were enriched with 10% fetal calf serum. Subsequently, the cells were exposed to the tested compounds, vehicle (0.1% v/v DMF) and Triton X-100 (1% v/v), during incubation. The conventional MTT assay was carried out following different incubation periods (Tables 5-6). The absorbance was measured at 570 nm by using a spectrophotometer (Infinite M200, Schoeller Instruments, Prague, Czech Republic). The obtained data are presented as the percentage of cell viability with 100% representing negative control treatment (0.1% v/v DMF) and 0% representing the positive control (Triton X-100). The half-maximal inhibitory concentrations (IC50) were determined from dose–response curves using GraphPad Prism 6 software (GraphPad Software, San Diego, USA).

[6] = test system: A2780R cisplatin-resistant human ovarian carcinoma cell line; experiment: MTT in vitro cytotoxicity, A2780R; format: cell-based; details: incubation 24 h, mean ± SD
Method: as §2

[7] = test system: MCF-7 breast adenocarcinoma cell line; experiment: MTT in vitro cytotoxicity, MCF-7; format: cell-based, human; details: incubation 24 h, mean ± SD
Method: as §2

[8] = test system: HOS human osteosarcoma cell line; experiment: MTT in vitro cytotoxicity, HOS; format: cell-based; details: incubation 24 h, mean ± SD
Method: as §2

[9] = test system: A549 human lung adenocarcinoma cell line; experiment: MTT in vitro cytotoxicity, A549; format: cell-based; details: for IC50: incubation 24 h, mean ± SD
Method: as §2

[10] = test system: PANC-1 human pancreatic carcinoma cell line; experiment: MTT in vitro cytotoxicity, PANC-1; format: cell-based; details: for IC50: incubation 24 h, mean ± SD
Method: as §2

[11] = test system: Caco-2 human colorectal adenocarcinoma cell line; experiment: MTT in vitro cytotoxicity, Caco-2; format: cell-based; details: for IC50: incubation 24 h, mean ± SD
Method: as §2, with “Additionally,” for “The cytotoxicity assessment was conducted on various human cancer cell lines, including A2780 ovarian carcinoma, A2780R cisplatin-resistant ovarian carcinoma, MCF-7 breast, HOS osteosarcoma, A549 epithelial lung, PANC-1 pancreatic, Caco-2 colorectal, PC-3 prostate adenocarcinoma, and HeLa cervical cell lines. Additionally,”

[12] = test system: PC-3 human prostate carcinoma cell line; experiment: MTT in vitro cytotoxicity, PC-3; format: cell-based; details: incubation 24 h, mean ± SD
Method: as §2

[13] = test system: HeLa human cervical carcinoma cell line; experiment: MTT in vitro cytotoxicity, HeLa; format: cell-based; details: incubation 24 h, mean ± SD
Method: as §2

[14] = test system: MRC-5 normal human lung fibroblast cell line; experiment: MTT in vitro cytotoxicity, MRC-5 (selectivity); format: cell-based; details: normal cells, MTT, incubation 24 h, mean ± SD
Method: as §2

[15] = test system: A2780 cells; experiment: Apoptosis, Annexin V/propidium iodide flow cytometry; format: cell-based, human; details: A2780, cisplatin 15 μM, 24 h, Annexin V/PI
Method: (§3) The A2780 ovarian carcinoma cell line was received from Merck (reference 93112519–1VL) and cultured at 37 °C in an environment with 5% CO2. The cultivation was carried out in complete cell culture medium (RPMI-1640 medium, Merck), which was supplemented with 10% fetal bovine serum (FBS, Merck), 1% L-glutamine (Merck) and 1% penicillin–streptomycin–neomycin (PSN, Merck). For the flow cytometry experiments, three independent duplicates were analyzed using a BD FACSVerse flow cytometer (Becton Dickinson, USA). At least 5 × 10^3 events were recorded for each sample. The same procedure was replicated for the experiments described below. Solutions of the complexes were formulated using the stock solutions (Section 5.1).
Apoptosis assay was performed using an Annexin V-FITC/PI commercial kit (V13242, Thermo Fisher Scientific, USA), while caspase 3/7 activation assay was performed with a CellEvent Caspase-3/7 Green Flow Cytometry Assay Kit (C10427, Thermo Fisher Scientific, USA). A2780 cells were seeded in 24-well plates at a density of 5 × 10^4 cells per well; after 24 h, the cells were exposed to 4 μM solution of the selected complex for 24 h. […] The supernatant was collected, cells were washed with PBS (0.1 M, pH 7.4), and trypsin was added (0.25% trypsin-EDTA, GibcoTM). Finally, complete cell culture medium was added to stop the trypsinization, and a final volume of 500 μL was divided into two 250 μL aliquots, following the protocol provided by the manufacturer. Samples were centrifuged, treated with the respective buffers, and then incubated in the dark at room temperature for 10 min (Annexin V-FITC/PI) or at 37 °C for 30 min (CellEventTM Caspase-3/7 Green Detection Reagent).

[16] = test system: A2780 cells; experiment: Autophagy analysis (CYTO-ID); format: cell-based, human; details: A2780, complexes 4 μM, cisplatin 15 μM, 24 h
Method: as §3
The potential induction of autophagy by 3a and 3b in A2780 cells was studied with the kit CYTO-ID Autophagy Detection 2.0 (from Enzo Life Sciences, USA), following the protocol provided by the manufacturer. […] The supernatant was collected, cells were washed with warm PBS, detached using 0.25% trypsin-EDTA (Gibco) and resuspended in a cell culture medium. Diluted CYTO-ID Green stain solution (according to the protocol) was used to stain the samples. Following incubation for 30 min in a light-protected environment, the samples were washed with PBS (phosphate-buffered saline). Subsequently, a flow cytometry experiment was conducted. A mixture of chloroquine (10 μM) and rapamycin (0.5 μM) was used as positive control.

[17] = test system: A2780 cells; experiment: Mitochondrial membrane potential analysis (MITO-ID); format: cell-based, human; details: A2780, complexes 4 μM, cisplatin 15 μM, 24 h
Method: as §3
To investigate the effects on mitochondrial membrane potential of A2780 cells, an MITO-ID Membrane potential detection kit (Enzo Life Sciences, USA) was used. Cells were seeded in a 24-well (5 × 10^4 cells/well), and then incubated with 4 μM solution of complexes for 24 h. The supernatant was collected, cells were washed with warm PBS, detached using 0.25% trypsin-EDTA (Gibco) and resuspended in a cell culture medium. Then, samples were stained with diluted MITO-ID MP Detection Reagent (according to the protocol) at RT for 15 min, prior to flow cytometry analysis. A positive control was established by treating the samples with 2 μM carbonyl cyanide 3-chlorophenylhydrazone.

[18] = vs Ag/AgCl/KCl, peak potential of irreversible process
[19] = MTT, incubation 24 h, mean ± SD (Table 5), read-out: IC50 A2780
[20] = time-course experiment (Table 6), 24 h, mean ± SD, read-out: IC50 A2780, incubation time 24 h
[21] = time-course experiment (Table 6), 48 h, mean ± SD, read-out: IC50 A2780, incubation time 48 h
[22] = time-course experiment (Table 6), 72 h, mean ± SD, read-out: IC50 A2780, incubation time 72 h

Row | Compound | Log Pow [1] | residual complex % in H2O/CH3OH ([2]; 30 min) [%] | residual complex % in H2O/CH3OH ([2]; 2 h) [%] | residual complex % in H2O/CH3OH ([2]; 18 h) [%] | residual complex % in DMEM/CH3OH ([4]; 2 h) [%] | residual complex % in DMEM/CH3OH ([4]; 18 h) [%] | IC50 [5, 19] [µM] | IC50 [5, 20] [µM] | IC50 [5, 21] [µM] | IC50 [5, 22] [µM] | IC50 [6] [µM] | IC50 [7] [µM] | IC50 [8] [µM] | IC50 [9] [µM] | IC50 [10] [µM] | IC50 [11] [µM] | IC50 [12] [µM] | IC50 [13] [µM] | IC50 [14] [µM] | other results
1 | O=[C]=[Ru]12([CH]3C=CC=C3)[CH]=C(C3(O)CCCC3)[C](=O)[Ru]1([CH]1C=CC=C1)[C]2=O (stereo not drawn) [2a, [Ru2Cp2(CO)2{μ–η^1:η^3-CH=C(1-cyclopentanol)C(=O)}]] | >1.5 | 97 | 91 | 23 | – | – | – | – | – | – | – | – | – | – | – | – | – | – | – | Formal electrode potential, oxidation [3, 18]: +0.55 V; Formal electrode potential, reduction [3, 18]: –1.82 V; Formal electrode potential, oxidation ([3]; vs FeCp2 (in parentheses)): +0.11 V; Formal electrode potential, reduction ([3]; vs FeCp2 (in parentheses)): −2.26 V
2 | CC12CCC(=O)C=C1CCC1C2CCC2(C)C1CCC2(O)C1=[CH][Ru]2(=[C]=O)([CH]3C=CC=C3)[C](=O)[Ru]2([CH]2C=CC=C2)[C]1=O (stereo not drawn) [2c, [Ru2Cp2(CO)2{μ–η^1:η^3-CHC(17-testosterone)C(O)}]] | >1.5 | 99 | 81 | 14 | – | – | – | – | – | – | – | – | – | – | – | – | – | – | – | –
3 | CC12CCC3C(CCC4=CC(=O)CCC43C)C1CCC2=C=[CH][Ru]1(=[C]=O)([CH]2C=CC=C2)[C](=O)[Ru+]1(=[C]=O)[CH]1C=CC=C1.F[B-](F)(F)F (mixture of isomers) [3c, [Ru2Cp2(CO)3{μ–η^1:η^2-CH=C=(testosteronylidene)}]BF4] | 0.89 ± 0.12 | – | 94 | 73 | 89 | 67 | 6.3 ± 1.3 | 4.7 ± 1 | 5.1 ± 0.7 | 6.8 ± 1.3 | 11.7 ± 2.4 | 22 ± 4 | 17.7 ± 2.8 | 20.7 ± 1.4 | 30 ± 0.6 | 42.8 ± 0.8 | 19.6 ± 3.7 | 16.3 ± 1.3 | 21.5 ± 4 | –
4 | Cc1ccc(C(C)C)cc1.[Cl][Ru]([Cl])[PH]12CN3CN(CN(C3)C1)C2 [RAPTA-C, [Ru(η^6-p-cymene)Cl2(pta)], reference compound] | – | – | – | – | – | – | > 50 | > 50 | > 50 | > 50 | > 50 | > 50 | > 50 | > 50 | > 50 | > 50 | > 50 | > 50 | > 50 | –
5 | N.N.[Cl][Pt][Cl] [cisplatin, reference compound] | – | – | – | – | – | – | – | – | – | – | 40 ± 3.9 | 28.4 ± 2.7 | 26.3 ± 3.3 | 39.2 ± 3.1 | > 50 | – | > 50 | 30.7 ± 0.6 | > 50 | cells with apoptotic changes [15]: ca. 40 % of the cells; autophagy level (in words) [16]: significantly enhanced; cell count with damaged mitochondrial membranes (in words) [17]: notable augmentation
6 | [Ru2Cp2(CO)2{μ–η^1:η^3-CH=C(17α-estradiol)C(=O)}] [2b] | >1.5 | 69 | – | 0 | 50 | 21 | 6.2 ± 1.2 | 5.8 ± 0.4 | 4.7 ± 0.8 | 4.2 ± 0.6 | 7.3 ± 2.4 | 19 ± 4.5 | 24 ± 3.8 | > 50 | > 50 | > 50 | 36 ± 4.1 | 5.5 ± 0.9 | > 50 | activity toward A549 cells (in words) ([9]; 24 h): inactive; activity toward PANC-1 cells (in words) ([10]; 24 h): inactive; activity toward Caco-2 cells (in words) ([11]; 24 h): inactive
